Laboratory results as given in patent US12577247B2 (BUGWORKS RESEARCH, INC., priority 2021, dated 2026).
Like-named read-outs stand apart in the source and are kept apart here.

Key:
A2B receptor [1] = biological target: T1, A2B receptor (Homo sapiens, UniProt P29275); experiment: A2bR antagonism IC50, cAMP TR-FRET (Lance Ultra) in HEK-293 cells, NECA as agonist; type: cell-based; parameters: host or cells: HEK-293; conditions: HEK-293 cells expressing A2B receptor; agonist NECA 30 nM (EC90); inhibition of cAMP
T1 sequence (P29275 1-332): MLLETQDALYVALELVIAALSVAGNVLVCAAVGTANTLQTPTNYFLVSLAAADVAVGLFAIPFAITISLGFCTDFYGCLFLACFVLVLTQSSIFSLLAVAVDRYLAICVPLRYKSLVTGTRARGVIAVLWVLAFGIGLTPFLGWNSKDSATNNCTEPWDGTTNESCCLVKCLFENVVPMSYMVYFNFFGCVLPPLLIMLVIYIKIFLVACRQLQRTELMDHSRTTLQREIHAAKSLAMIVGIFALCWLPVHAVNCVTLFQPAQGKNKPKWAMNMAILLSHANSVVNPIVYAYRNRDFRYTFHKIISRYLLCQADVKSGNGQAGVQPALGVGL
Description: Adenosine A2A receptors and Adenosine A2B receptors induce the production of cAMP when activated/stimulated by an agonist like adenosine or 5′-(N-Ethylcarboxamido) adenosine (NECA). A Time-Resolved Fluorescence Energy Transfer (TR-FRET) assay was used to show the inhibition of this cAMP production in HEK cells upon treatment with compounds of the Formula I of the present disclosure.
HEK-293 cells expressing A2A receptor (#ES-011-C) or A2B receptor (#ES 013-C) were obtained from PerkinElmer. Cells were maintained in DMEM medium supplemented with 10% FBS and 200 μg/mL of G418 at 37° C. and 5% CO2. The cells were cultured in antibiotic free medium for a period of 16-20 hours prior to the assay. All subsequent steps of the assay are performed at room temperature (22-24° C.). The cells were harvested at about 80% confluency by gentle flushing with PBS, recovered by centrifugation and resuspended in stimulation buffer at the concentration of 5.0×10^6 cells/mL.
The assays were conducted in a stimulation buffer containing 1×DMEM, 5 mM HEPES, 0.1% BSA stabilizer and 20-30 μM Rolipram. Serial dilutions of compounds were made in stimulation buffer to achieve a final concentration of high micromolar (10 μM to 0.08 nM) in the reaction volume of 10 μL. The total reaction volume was 10 μL (5 μL of cells, 2.5 μL of antagonist and 2.5 μL of agonist). The stimulation was ended, and the reaction completed by adding 5 μL of 4× Eu-cAMP tracer working solution and 5 μL of 4× ULight-anti-cAMP working solution. The TR-FRET signal was measured after 1-hour incubation using a Tecan M1000 reader.

A2B receptor [2] = biological target: T1, A2B receptor; experiment: A2bR antagonism IC50, cAMP TR-FRET in HEK-293 cells, high concentration of adenosine (30 μM); conditions: A2BR IC50 (nM) (@30 μM Adenosine), HEK-293 cells expressing A2B receptor; agonist adenosine 30 μM; 2% HSA; inhibition of cAMP;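 also: compounds preincubated 10 min with cells, then adenosine stimulation 30 min at room temperature in buffer with Rolipram 100 µM and EHNA 30 µM, TR-FRET read after 1 h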
[3] = system: human Peripheral blood mononuclear cells (PBMCs); experiment: Cytokine restoration assay in human PBMCs (IL-2, TNF-α) under NECA; type: cell-based; conditions: PBMC, NECA 5 μM, anti CD3/28 Dynabeads, 48 hours
Description: The ability of the invention compounds disclosed herein to restore the cytokines (IL-2 and TNF-α) release under adenosine agonist (NECA) environment evaluated using human Peripheral blood mononuclear cells (PBMCs). Peripheral blood was collected from healthy adult individuals in vacutainer tube. Peripheral blood mononuclear cells (PBMCs) were isolated via density gradient centrifugation, which uses Ficoll (Histopaque buffer) combined with short, low-speed centrifugation, to separate different cell populations. Diluted defibrinated blood was layered on a Ficoll and centrifuged at 1800 rpm for 20 minutes at 22° C. Differential migration of cells during centrifugation results in the formation of layers containing different cell types. The bottom layer contains erythrocytes. Remaining cells (i.e., lymphocytes, monocytes, and platelets) that are not dense enough to penetrate the Ficoll media layers (densities of 1.0770 g/ml), forms a buffy coat at the interface between the upper plasma layer and the Ficoll media layer. After carefully collected the buffy coat excess of platelets, Ficoll and plasma were removed by washing it with isotonic sterile phosphate buffered saline (PBS) and resulting cell pellet was resuspended in RPMI media with 5% FBS an P/S. The isolated PBMCs were allowed to be conditioned for an hour at 37° C. in a CO2 incubator. These cells were subsequently used for specific downstream assay. Isolated PBMC (3×10^5 cells/200 μl) were plated in 96 well microtiter plate in RPMI media with 5% FBS in presence of 100 units of penicillin plus 100 μg/ml streptomycin. NECA was added at a final concentration of 5 μM, control wells were maintained without NECA suppression (i.e., no NECA control). The assay plates were incubated at 37° C. for 4 hours in a CO2 incubator. Various concentrations of test compounds were added into respective wells in triplicates. Pre-washed anti CD3/28 Dynabeads (2.5 μL) was added for CD4 and CD8 + T-cell stimulation (to obtain a bead-to-cell ratio of 1:1). The assay plate was incubated at 37° C. in 5% CO2 and 20% ambient O2 maximum for 48 hours. At the end of 48 hours, the activated PBMC were harvested, and culture supernatants were used directly for further analysis. Forty-eight hours post treatment, 15 μL of cell-free supernatant was collected and assayed for secreted IL2 using the human Interleukin 2 (hIL2)—LANCE Ultra Detection Kit (Perkin Elmer). Similarly, level of soluble Tumor Necrosis Factor alpha (TNFα) was determined using human TNFα LANCE Ultra Detection Kit (Perkin Elmer). T-FRET signal was measured with Tecan spark multimode plate reader. Data was analyzed by graph-pad prism9. EC50 s of the compounds of Formula (I) in restoration of cytokine release under adenosine agonist from the human PBMCS are presented in Table 2

hERG potassium channel = biological target: T2, hERG potassium channel (Homo sapiens, UniProt Q12809); experiment: hERG inhibition assay, Qpatch HTX automated electrophysiology; type: cell-based; conditions: CHO cell line stably expressing hERG; whole-cell patch clamp; room temperature
T2 construct: a Chinese Hamster Ovary cell line stably expressing the full-length hERG potassium channel; expressed in transfected cells; host or cells: Chinese Hamster Ovary cell line
T2 sequence (Q12809 whole entry): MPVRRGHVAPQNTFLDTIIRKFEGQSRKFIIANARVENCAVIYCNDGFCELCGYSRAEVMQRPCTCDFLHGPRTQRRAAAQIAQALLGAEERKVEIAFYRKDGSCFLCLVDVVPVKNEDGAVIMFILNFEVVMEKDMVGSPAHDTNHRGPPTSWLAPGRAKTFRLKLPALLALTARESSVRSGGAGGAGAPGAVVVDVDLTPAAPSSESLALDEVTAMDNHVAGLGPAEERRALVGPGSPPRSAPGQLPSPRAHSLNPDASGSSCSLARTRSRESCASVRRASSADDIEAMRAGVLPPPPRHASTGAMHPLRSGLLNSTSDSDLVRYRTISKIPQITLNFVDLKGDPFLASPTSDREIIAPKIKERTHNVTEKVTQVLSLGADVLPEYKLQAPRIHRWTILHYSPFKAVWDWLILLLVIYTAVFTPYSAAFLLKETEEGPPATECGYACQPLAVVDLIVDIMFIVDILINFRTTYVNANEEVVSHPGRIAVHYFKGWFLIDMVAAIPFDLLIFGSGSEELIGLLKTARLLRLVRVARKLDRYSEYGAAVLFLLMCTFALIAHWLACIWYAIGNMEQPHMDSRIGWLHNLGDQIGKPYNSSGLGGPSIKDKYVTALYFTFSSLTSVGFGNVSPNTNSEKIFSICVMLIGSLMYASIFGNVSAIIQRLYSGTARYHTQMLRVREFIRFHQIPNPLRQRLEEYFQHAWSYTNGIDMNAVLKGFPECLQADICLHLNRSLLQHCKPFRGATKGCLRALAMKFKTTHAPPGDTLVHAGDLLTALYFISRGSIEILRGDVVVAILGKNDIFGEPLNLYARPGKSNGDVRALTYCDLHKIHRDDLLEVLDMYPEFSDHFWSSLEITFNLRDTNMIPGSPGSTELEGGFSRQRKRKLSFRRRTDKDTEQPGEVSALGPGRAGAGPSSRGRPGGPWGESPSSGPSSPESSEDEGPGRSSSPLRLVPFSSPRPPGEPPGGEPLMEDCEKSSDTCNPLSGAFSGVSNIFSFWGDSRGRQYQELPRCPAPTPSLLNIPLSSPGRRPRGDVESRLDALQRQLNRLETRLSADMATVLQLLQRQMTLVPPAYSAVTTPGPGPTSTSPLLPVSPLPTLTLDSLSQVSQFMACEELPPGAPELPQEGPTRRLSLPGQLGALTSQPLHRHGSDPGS
Procedure: The representative compounds of formula I were tested for inhibition of the human ether a go-go related gene (hERG) K+ channel using Qpatch HTX automated electrophysiology. 6-Point concentration-response curves were generated using three-fold serial dilutions from a maximum final test concentration of […] and the results are presented in Table 3.
Compounds were solubilised to 100 mM in DMSO before dilution in HBPS to 100 μM. […] Electrophysiological recordings were made from a Chinese Hamster Ovary cell line stably expressing the full-length hERG potassium channel. Single cell ionic currents were measured in whole-cell patch clamp configuration at room temperature (21-23° C.) using the Qpatch HTX platform (Sophion). Intracellular solution contained (mM): 120 KF, 20 KCl, 10 EGTA, 10 HEPES and was buffered to pH 7.3. […] Cells were clamped at a holding potential of −80 mV. Cells were stepped to +20 mV for 2 s then −40 mV for 3 s before returning to the holding potential. This sweep was repeated 10 times at 10 s intervals. hERG currents were measured from the tail step and referenced to the holding current. Compounds were then incubated for 2 minutes prior to a second measurement of ion channel current using an identical pulse train.

A2A receptor [4] = biological target: T3, A2A receptor (Homo sapiens, UniProt P29274); experiment: A2aR antagonism IC50, cAMP TR-FRET in HEK-293 cells, high concentration of adenosine (30 μM); type: cell-based; conditions: HEK-293 cells expressing A2A receptor; agonist adenosine 30 μM; 2% HSA; inhibition of cAMP; read-out: A2AR IC50 (nM) (@30 μM Adenosine);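 also: compounds added 10 min before adenosine, then 30 min stimulation at room temperature in buffer with 100 µM rolipram and 30 µM EHNA, signal read 1 h after detection reagents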
T3 construct: host or cells: HEK-293
T3 sequence (P29274 whole entry): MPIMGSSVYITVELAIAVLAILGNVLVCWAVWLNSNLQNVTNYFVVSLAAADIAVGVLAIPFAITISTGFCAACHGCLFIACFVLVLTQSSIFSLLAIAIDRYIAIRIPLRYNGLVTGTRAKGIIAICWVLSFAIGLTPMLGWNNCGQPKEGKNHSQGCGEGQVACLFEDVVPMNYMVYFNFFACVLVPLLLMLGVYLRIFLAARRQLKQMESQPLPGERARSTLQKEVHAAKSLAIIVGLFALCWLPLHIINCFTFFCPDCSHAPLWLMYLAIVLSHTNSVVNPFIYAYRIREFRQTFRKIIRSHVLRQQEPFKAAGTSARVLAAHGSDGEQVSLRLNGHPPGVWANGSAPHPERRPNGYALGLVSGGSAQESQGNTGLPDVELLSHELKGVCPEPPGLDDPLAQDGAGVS

A2A receptor [5] = biological target: T3, A2A receptor; experiment: A2aR antagonism IC50, cAMP TR-FRET (Lance Ultra) in HEK-293 cells, NECA as agonist; type: cell-based; conditions: A2AR IC50 (nM) (@5 nM NECA), HEK-293 cells expressing A2A receptor; agonist NECA 5 nM (EC90); inhibition of cAMP;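 also: compounds tested from 10 µM down to 0.08 nM in buffer with Rolipram at room temperature, TR-FRET cAMP signal read 1 h after adding Eu-cAMP tracer and ULight anti-cAMP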
[6] = read-out: IL-2 restoration EC50
[7] = read-out: TNF-α restoration EC50

IC50 (A2B receptor [1]) | IC50 (A2B receptor [2]) | IC50 (A2A receptor [4]) | IC50 (A2A receptor [5]) | Structure (SMILES) | EC50 [3, 6] | EC50 [3, 7] | IC50 (hERG potassium channel)
2 nM | 586 nM | 88 nM | < 0.1 nM | CCc1c(C)nn2c(N)c(C#N)c(NCCc3ccn(C4CCC4CO)n3)nc12 (single isomer, unassigned; (-)) [Example 79, (−)-7-amino-3-ethyl-5-((2-(1-(2-(hydroxymethyl)cyclobutyl)-1H-pyrazol-3-yl)ethyl)amino)-2-methylpyrazolo[1,5-a]pyrimidine-6-carbonitrile] | 2.2 nM | 1.4 nM | > 100000 nM
– | 429 nM | 181 nM | – | CCc1c(C)nn2c(N)c(C#N)c(NCCc3cccc(CCCO)n3)nc12 [Example 155, 7-amino-3-ethyl-5-((2-(6-(3-hydroxypropyl)pyridin-2-yl)ethyl)amino)-2-methylpyrazolo[1,5-a]pyrimidine-6-carbonitrile] | 3.6 nM | 3.2 nM | > 100000 nM
